Laboratory results reported in patent US7871996B2, “Methods of inhibiting nitric oxide synthase using corrin derivatives” (The United States of America as represented by the …, priority 2006, dated 2011).
Where a name gives a salt, the structure may show the parent alone.

Columns and labels:
NOS2 (iNOS) = target: T1, NOS2 (iNOS) (Homo sapiens, UniProt P35228); experiment: NOS2 enzymatic activity: conversion of 14-C-L-arginine to L-citrulline; format: biochemical
T1 construct: made in house
Experimental: (§1) The enzymatic activity of purified NOS1, NOS2, or NOS3 to convert radiolabeled L-arginine to L-citrulline was assessed in presence or absence of different concentrations of (A) hydroxocobalamin, (B) cobinamide, (C) dicyanocobinamide, or (D) cyanocobalamin. Results are expressed as percent inhibition.
(§2) The effect of methylcobalamin (not exposed to light or exposed to light) on nNOS is shown in FIG. 3A; its effect on iNOS is shown in FIG. 3B. The effect of adenosylcobalamin (not exposed to light or exposed to light) on nNOS is shown in FIG. 3C; its effect on iNOS is shown in FIG. 3D. The agents were protected from light or exposed to light for 60 minutes. The enzyme assays were done in near-dark conditions (as low light as possible). Light removes the methyl- or adenosyl-group from the agent resulting in hydroxocobalamin.
(§3) Briefly, cells were treated with 500 units/ml of murine interferon-gamma for 24 hours, incubated with 10 uM DAF-FM for 30 minutes, and washed. Then the cells were then assessed for fluorescence in a platereader fluorimeter. The degree of NO formation is proportional to the degree of fluorescence of DfAF-FM. To determine NOS activity, we incubated 14-C-labeled-L-arginine was at 37° C. with 5 nM recombinant NOS1, NOS2 or NOS3 with HEPES buffer, dithiothreitol, tetrahydrobiopterin, FAD, and NADPH in the absence or presence of different concentrations of the compound in question for 60 minutes (27, 28). The reaction was stopped by adding excess L-citrulline, after which 14-C-labeled L-arginine was separated from 14-C-labeled citrulline using a Dowex-50 column (with the 14-C-labeled L-arginine being bound to the Dowex-50, and 14-C-labeled citrulline eluting free from the column). Radioactivity was determined with a scintillation counter, and percentage NOS inhibition was calculated. We determined that none of the compounds quenched detection of the radioactivity. Spectroscopy was determined using a Hitachi U2010 spectrometer (San Jose, Calif.) as noted before (17, 24, 25).

NOS1 (nNOS) = target: T2, NOS1 (nNOS) (Homo sapiens, UniProt P29475); experiment: NOS1 enzymatic activity: conversion of 14-C-L-arginine to L-citrulline; format: biochemical
T2 construct: made in house
Experimental: as §1, §2, §3

[1] = UV/Vis spectroscopy of reaction of agent with NO; format: binding
Experimental: NO reacts with OH-Cbl as indicated by the change in the UV/Vis spectrum (shift of peak from 352 nm to 354-355 nm, and alteration in the 520 nm region).
as §3, with “25). […]” for “25).”

[2] = stated as known; cited from earlier work
[3] = target: T3, purified, recombinant NOS2 (Homo sapiens, UniProt P35228); experiment: UV/Vis spectroscopy of CO binding to reduced NOS2 heme; details: reduced conditions (dithionite), CO as oxygen mimic
T3 construct: made in house
Description: Oxygen reacts directly with the reduced iron of the heme group in NOS. Carbon monoxide (CO) (that simulates O2 in binding to the reduced iron) was used to determine the influence of CN2-Cbi on oxygen binding to NOS. The reaction of purified NOS2 with CO in a reduced state (dithionite) markedly changed the UV/Vis spectrum, with appearance of the typical CO-bound Fe^+2-heme peak at 445 nm (FIG. 4A). However, in the presence of CN2-Cbi, there was no appearance of the 445 nm peak induced by CO in a reduced state (FIG. 4B).
Briefly, cells were treated with 500 units/ml of murine interferon-gamma for 24 hours, incubated with 10 uM DAF-FM for 30 minutes, and washed. Then the cells were then assessed for fluorescence in a platereader fluorimeter. The degree of NO formation is proportional to the degree of fluorescence of DfAF-FM. […] Radioactivity was determined with a scintillation counter, and percentage NOS inhibition was calculated. We determined that none of the compounds quenched detection of the radioactivity. Spectroscopy was determined using a Hitachi U2010 spectrometer (San Jose, Calif.) as noted before (17, 24, 25). […]

J774 cells = experiment: NO formation by activated J774 mouse macrophage cells; format: cell-based; details: interferon-gamma and endotoxin, 3 days, 0 to 62.5 uM
Experimental: (§4) Cells of the mouse macrophage cell line J774 were incubated 3 days with 10 ng/ml endotoxin and 100 units/ml murine interferon gamma to activate the macrophage-like cells for NO production. The cultures also contained 0 to 62.5 uM dicyanocobinamide for the 3 days. At the end of the culture period, supernatant cell NO production was determined. […] Cells of the mouse macrophage cell line Raw 264 were incubated 24 hours with 100 units/ml murine interferon gamma to activate the macrophage-like cells for NO production. The cultures also contained 0, 0.5, 2.0, or 8.0 uM dicyanocobinamide for the entire culture period. At the end of the culture period the cells were assessed for NO production using DAF-MN and a fluorimeter. Results are expressed as percent inhibition. The error bars show the SEM.
We prepared highly purified, recombinant NOS1 and NOS2 (24,25). Recombinant bovine NOS3 was purchased from Cayman (Ann Arbor, Mich.). Tetrahydrobiopterin and carboxy-PTIO {2-(4-Carboxyphenyl)-4,4,5,5-tetramethylimidazoline-1-oxyl-3-oxide (potassium salt)} were from Alexis (San Diego, Calif.). 14-C-labeled L-arginine and 14-C-labeled citrulline were from Amersham/GE Healthcare (Waukesha, Wis.). […] NO levels were measured using a “Nitric Oxide Analyzer” (Sievers, Boulder, Colo.) or using diaminofluorescein-FM (4-amino-5-methylamino-2′,7′-difluorofluorescein) from Invitrogen-Molecular Probes.

Raw 264 cells = experiment: NO formation by activated Raw 264 mouse macrophage cells (DAF-FM fluorescence); format: cell-based; details: interferon-gamma, 24 hours, 0, 0.5, 2.0, or 8.0 uM
Experimental: as §4
We prepared highly purified, recombinant NOS1 and NOS2 (24,25). […] NO levels were measured using a “Nitric Oxide Analyzer” (Sievers, Boulder, Colo.) or using diaminofluorescein-FM (4-amino-5-methylamino-2′,7′-difluorofluorescein) from Invitrogen-Molecular Probes.
Briefly, cells were treated with 500 units/ml of murine interferon-gamma for 24 hours, incubated with 10 uM DAF-FM for 30 minutes, and washed. Then the cells were then assessed for fluorescence in a platereader fluorimeter. The degree of NO formation is proportional to the degree of fluorescence of DfAF-FM. […]

[4] = after light illumination of the agent

T3 sequence (P35228 whole entry): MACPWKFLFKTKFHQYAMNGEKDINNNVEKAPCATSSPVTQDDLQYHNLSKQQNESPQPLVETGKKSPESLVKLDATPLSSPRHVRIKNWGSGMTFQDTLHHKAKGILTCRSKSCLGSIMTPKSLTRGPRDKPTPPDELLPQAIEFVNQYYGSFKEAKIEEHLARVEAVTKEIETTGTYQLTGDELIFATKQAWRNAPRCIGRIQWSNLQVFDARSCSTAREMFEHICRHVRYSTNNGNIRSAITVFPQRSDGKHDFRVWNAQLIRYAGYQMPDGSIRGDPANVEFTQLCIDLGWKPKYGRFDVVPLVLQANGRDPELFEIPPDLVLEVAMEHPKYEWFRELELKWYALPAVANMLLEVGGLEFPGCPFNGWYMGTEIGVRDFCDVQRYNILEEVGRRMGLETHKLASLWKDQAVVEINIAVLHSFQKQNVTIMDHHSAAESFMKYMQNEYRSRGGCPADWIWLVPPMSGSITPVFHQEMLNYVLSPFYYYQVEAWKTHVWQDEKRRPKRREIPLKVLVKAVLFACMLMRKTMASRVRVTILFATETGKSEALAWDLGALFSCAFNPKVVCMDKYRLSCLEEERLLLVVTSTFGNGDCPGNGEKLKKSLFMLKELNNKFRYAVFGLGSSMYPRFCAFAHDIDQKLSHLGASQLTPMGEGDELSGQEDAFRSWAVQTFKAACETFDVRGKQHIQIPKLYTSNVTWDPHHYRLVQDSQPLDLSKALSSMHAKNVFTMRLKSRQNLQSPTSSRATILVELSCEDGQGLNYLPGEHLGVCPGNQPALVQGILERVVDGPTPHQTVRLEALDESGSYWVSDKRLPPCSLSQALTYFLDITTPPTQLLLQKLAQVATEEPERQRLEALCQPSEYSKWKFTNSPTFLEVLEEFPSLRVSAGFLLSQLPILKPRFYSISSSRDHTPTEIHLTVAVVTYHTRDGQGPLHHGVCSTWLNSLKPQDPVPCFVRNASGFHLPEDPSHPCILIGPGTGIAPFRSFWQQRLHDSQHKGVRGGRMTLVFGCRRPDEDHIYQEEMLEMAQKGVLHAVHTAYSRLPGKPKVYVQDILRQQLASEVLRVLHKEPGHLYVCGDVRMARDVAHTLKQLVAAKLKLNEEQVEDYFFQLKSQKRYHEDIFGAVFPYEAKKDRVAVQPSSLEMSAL

Cyanocobalamin
NOS2 inhibition (in words) (NOS2 (iNOS); purified recombinant NOS2): much less activity
NOS1 inhibition (in words) (NOS1 (nNOS); purified recombinant NOS1): much less activity

C/C1=C2/[N-][C@H]([C@H](CC(N)=O)[C@@]2(C)CCC(=O)NC[C@@H](C)OP(=O)([O-])O[C@H]2[C@@H](O)[C@@H](n3cnc4cc(C)c(C)cc43)O[C@@H]2CO)[C@]2(C)N=C(/C(C)=C3N=C(/C=C4N=C1[C@@H](CCC(N)=O)C\4(C)C)[C@@H](CCC(N)=O)[C@]\3(C)CC(N)=O)[C@@H](CCC(N)=O)[C@]2(C)CC(N)=O.[CH2-][C@H]1O[C@@H](n2cnc3c(N)ncnc32)[C@H](O)[C@@H]1O.[Co] [Adenosylcobalamin]
NOS2 inhibition (in words) (NOS2 (iNOS); [4]): inhibitory activity (comparable to native OH-Cbl)
NOS2 inhibition (in words) (NOS2 (iNOS); agent not exposed to light): very little ability to inhibit NOS activity
NOS1 inhibition (in words) (NOS1 (nNOS); [4]): inhibitory activity (comparable to native OH-Cbl)
NOS1 inhibition (in words) (NOS1 (nNOS); agent not exposed to light): very little ability to inhibit NOS activity

C/C1=C2/[N-][C@H]([C@H](CC(N)=O)[C@@]2(C)CCC(=O)NC[C@@H](C)OP(=O)([O-])O[C@H]2[C@@H](O)[C@@H](n3cnc4cc(C)c(C)cc43)O[C@@H]2CO)[C@]2(C)N=C(/C(C)=C3N=C(/C=C4N=C1[C@@H](CCC(N)=O)C\4(C)C)[C@@H](CCC(N)=O)[C@]\3(C)CC(N)=O)[C@@H](CCC(N)=O)[C@]2(C)CC(N)=O.[Co+3].[OH-] [Hydroxocobalamin]
reaction with NO (change in UV/visible spectrum) [1]: reacted
NOS2 inhibition (in words) (NOS2 (iNOS); purified recombinant NOS2): potent
ability to bind and scavenge NO [2]: able to bind and scavenge NO
NOS1 inhibition (in words) (NOS1 (nNOS); purified recombinant NOS1): potent

C/C1=C2/[N-]C([C@H](CC(N)=O)[C@@]2(C)CCC(=O)NCC(C)O)[C@]2(C)N=C(/C(C)=C3N=C(/C=C4N=C1[C@@H](CCC(N)=O)C\4(C)C)[C@@H](CCC(N)=O)[C@]\3(C)CC(N)=O)[C@@H](CCC(N)=O)[C@]2(C)CC(N)=O.[C-]#N.[C-]#N.[Co] (stereo partly drawn) [Dicyanocobinamide]
reaction with NO (change in UV/visible spectrum) [1]: did not react
CO-induced spectral changes in NOS2 (445 nm peak) [3]: markedly diminished
NOS2 inhibition (in words) (NOS2 (iNOS); purified recombinant NOS2): potent
inhibition of NO production (J774 cells): dose-dependent inhibition
NOS1 inhibition (in words) (NOS1 (nNOS); purified recombinant NOS1): potent
inhibition of NO production (Raw 264 cells): dose-dependent inhibition

CC1(C)N([O])C(c2ccc(C(=O)O)cc2)=[N+]([O-])C1(C)C [Carboxy-PTIO, 2-(4-Carboxyphenyl)-4,4,5,5-tetramethylimidazoline-1-oxyl-3-oxide (potassium salt)]
NOS2 inhibition (in words) (NOS2 (iNOS); purified recombinant NOS2): does not inhibit NOS
EC50 (NOS2 (iNOS); purified recombinant NOS2, 5 nM, 60 minutes, 37° C., read-out: ED50 NOS2): 1360 µM
NOS1 inhibition (in words) (NOS1 (nNOS); purified recombinant NOS1): does not inhibit NOS
EC50 (NOS1 (nNOS); purified recombinant NOS1, 5 nM, 60 minutes, 37° C., read-out: ED50 NOS1): 1360 µM

C/C1=C2/[N-][C@H]([C@H](CC(N)=O)[C@@]2(C)CCC(=O)NC[C@H](C)OP(=O)([O-])O[C@H]2[C@@H](O)[C@@H](n3cnc4cc(C)c(C)cc43)O[C@@H]2CO)[C@]2(C)N=C(/C(C)=C3N=C(/C=C4N=C1[C@@H](CCC(N)=O)C\4(C)C)[C@@H](CCC(N)=O)[C@]\3(C)CC(N)=O)[C@@H](CCC(N)=O)[C@]2(C)CC(N)=O.[CH3-].[Co+3] [Methylcobalamin]
NOS2 inhibition (in words) (NOS2 (iNOS); [4]): inhibitory activity (comparable to native OH-Cbl)
NOS2 inhibition (in words) (NOS2 (iNOS); agent not exposed to light): very little ability to inhibit NOS activity
NOS1 inhibition (in words) (NOS1 (nNOS); [4]): inhibitory activity (comparable to native OH-Cbl)
NOS1 inhibition (in words) (NOS1 (nNOS); agent not exposed to light): very little ability to inhibit NOS activity

C/C1=C2/[N-][C@H]([C@H](CC(N)=O)[C@@]2(C)CCC(=O)NC[C@@H](C)O)[C@]2(C)N=C(/C(C)=C3N=C(/C=C4N=C1[C@@H](CCC(N)=O)C\4(C)C)[C@@H](CCC(N)=O)[C@]\3(C)CC(N)=O)[C@@H](CCC(N)=O)[C@]2(C)CC(N)=O.[Co+3] [Cobinamide]
NOS2 inhibition (in words) (NOS2 (iNOS); purified recombinant NOS2): potent
ability to bind and scavenge NO [2]: able to bind and scavenge NO
NOS1 inhibition (in words) (NOS1 (nNOS); purified recombinant NOS1): potent
